Holding throughout (format): biochemical
One assay deals with CDK7/CycH/Mat1 (Homo sapiens, UniProt P50613). Description: CDK7 Enzymatic Activity Assay (Lance Kinase Activity Assay, FRET). To be noted: CDK7/CycH/Mat1, 25 μM ATP final; class ranges; read-out: CDK7: IC50 [nM] for CDK7 inhibition. The procedure, abridged:
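Ulight-MBP peptide phosphorylation by CDK7/CycH/Mat1 in HEPES 50 mM pH 7.5, MgCl2, EGTA, DTT, Tween-20; 1 h at room temperature, then EDTA stop with Eu-anti-phospho-MBP antibody for 1 h and TR-FRET read. Compounds in 8-point 1:3 DMSO series; IC50 from sigmoidal dose-response fit.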

The target in another assay is CDK9/Cyclin T1 (Homo sapiens, UniProt P50750). Description: CDK9 Enzymatic Activity Assay (Lance Kinase Activity Assay, FRET). The following applies: Table 5B, class symbols per IC50 [nM] ranges of b581; read-out: CDK9: Selectivity of CDK7 inhibition over CDK9 inhibition. The procedure, abridged:
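CDK9/cyclin T1 phosphorylation of a ULight-MBP peptide was run for 1 h at room temperature in pH 7.5 HEPES buffer with MgCl2, EGTA, DTT and Tween-20. It was followed by 1 h with Eu-anti-phospho-MBP antibody (4 nM) in EDTA detection buffer. TR-FRET loss gave IC50 from 8-point, 1:3 sigmoidal dose-response curves.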

The target in the next assay is T1, CDK2/CycA (Homo sapiens, UniProt P24941).
T1 construct: purchased Proqinase
Nature of the assay: CDK2 Enzymatic Activity Assay (Lance Kinase Activity Assay, FRET). The following applies: Table 5B, class symbols per IC50 [nM] ranges of b581; read-out: CDK2: Selectivity of CDK7 inhibition over CDK2 inhibition. The procedure, abridged:
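LANCE TR-FRET assay: CDK2/CycA phosphorylated ULight-MBP peptide in HEPES 50 mM pH 7.5 buffer with MgCl2, EGTA, DTT and Tween-20 for 1 h at room temperature. Eu-anti-phospho-MBP antibody with EDTA was then added for 1 h before reading. IC50 was fitted from 8-point, 1:3 sigmoidal dose-response curves.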

SMILES strings stand for the structures.

Sequence of CDK9/Cyclin T1 (P50750 whole entry): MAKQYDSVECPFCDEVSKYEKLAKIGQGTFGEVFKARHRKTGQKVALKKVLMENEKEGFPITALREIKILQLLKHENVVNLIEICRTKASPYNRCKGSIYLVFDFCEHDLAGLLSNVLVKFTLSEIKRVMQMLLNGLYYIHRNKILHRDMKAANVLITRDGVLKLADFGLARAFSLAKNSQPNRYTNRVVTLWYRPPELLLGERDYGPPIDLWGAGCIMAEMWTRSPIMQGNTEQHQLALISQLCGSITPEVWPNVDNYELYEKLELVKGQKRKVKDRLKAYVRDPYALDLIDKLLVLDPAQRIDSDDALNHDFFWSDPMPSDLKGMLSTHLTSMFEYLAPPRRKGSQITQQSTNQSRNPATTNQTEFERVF
Sequence of CDK9/Cyclin T1 (O60563 whole entry partner): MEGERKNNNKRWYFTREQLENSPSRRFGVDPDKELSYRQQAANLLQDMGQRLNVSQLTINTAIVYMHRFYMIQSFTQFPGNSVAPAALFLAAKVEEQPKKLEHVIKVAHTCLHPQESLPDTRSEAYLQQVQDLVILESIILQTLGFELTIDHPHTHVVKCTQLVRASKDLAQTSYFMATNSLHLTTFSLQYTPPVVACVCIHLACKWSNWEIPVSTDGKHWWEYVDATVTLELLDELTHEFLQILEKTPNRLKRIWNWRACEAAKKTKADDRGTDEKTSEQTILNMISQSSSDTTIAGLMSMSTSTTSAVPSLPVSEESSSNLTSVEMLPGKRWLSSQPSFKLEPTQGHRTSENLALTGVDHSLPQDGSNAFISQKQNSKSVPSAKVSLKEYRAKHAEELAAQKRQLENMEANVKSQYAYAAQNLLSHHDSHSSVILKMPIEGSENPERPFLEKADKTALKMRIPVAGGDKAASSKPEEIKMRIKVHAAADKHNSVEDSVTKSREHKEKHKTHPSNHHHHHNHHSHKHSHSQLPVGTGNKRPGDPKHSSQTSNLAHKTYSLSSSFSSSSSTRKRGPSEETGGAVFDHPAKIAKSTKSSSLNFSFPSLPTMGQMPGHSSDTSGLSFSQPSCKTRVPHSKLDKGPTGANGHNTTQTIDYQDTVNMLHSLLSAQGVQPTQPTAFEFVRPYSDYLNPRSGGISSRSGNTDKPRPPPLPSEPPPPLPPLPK
Sequence of CDK7/CycH/Mat1 (P50613 whole entry): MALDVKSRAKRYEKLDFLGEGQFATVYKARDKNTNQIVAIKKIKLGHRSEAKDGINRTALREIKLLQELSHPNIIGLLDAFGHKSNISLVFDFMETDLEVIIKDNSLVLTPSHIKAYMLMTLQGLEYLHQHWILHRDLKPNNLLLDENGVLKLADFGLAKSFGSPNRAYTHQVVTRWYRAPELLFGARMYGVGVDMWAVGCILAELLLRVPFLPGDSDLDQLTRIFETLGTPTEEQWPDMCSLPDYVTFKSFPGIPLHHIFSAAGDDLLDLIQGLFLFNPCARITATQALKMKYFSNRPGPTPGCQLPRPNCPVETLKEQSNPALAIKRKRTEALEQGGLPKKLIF

As to `CC(C)c1cnn2c(NCc3ccccc3-n3cccn3)nc(OC3CCN(C)CC3)nc12` [(VII-73), N-(2-(1H-pyrazol-1-yl)benzyl)-8-isopropyl-2-((1-methylpiperidin-4-yl)oxy)pyrazolo[1,5-a][1,3,5]triazin-4-amine], the IC50 at CDK7/CycH/Mat1 was < 5 nM; on CDK9/Cyclin T1, > 2500 nM; at CDK2/CycA, 500 to 2500 nM.
Take `CC(C)c1cnn2c(NCc3ccccc3-n3cncn3)nc(OC3CCN(C)CC3)nc12` [(VII-74), N-(2-(1H-1,2,4-triazol-1-yl)benzyl)-8-isopropyl-2-((1-methylpiperidin-4-yl)oxy)pyrazolo[1,5-a][1,3,5]triazin-4-amine]: the IC50 at CDK7/CycH/Mat1 is < 5 nM; at CDK9/Cyclin T1, > 2500 nM; on CDK2/CycA, 50 to 500 nM.
With `CC(C)c1cnn2c(NCc3ccccc3CN3CCCC3=O)nc(O[C@@H]3CCCNC3)nc12` [(VII-092), (R)-1-(2-(((8-isopropyl-2-(piperidin-3-yloxy)pyrazolo[1,5-a][1,3,5]triazin-4-yl)amino)methyl)benzyl)pyrrolidin-2-one], the IC50 is 10 to 25 nM on CDK7/CycH/Mat1, > 2500 nM at CDK9/Cyclin T1 and > 2500 nM at CDK2/CycA.
Regarding `Cc1ccc(CNc2nc(O[C@@H]3CCCNC3)nc3c(C(C)C)cnn23)c(OC2CCOC2)c1` (stereo partly drawn) [(VII-093), 8-isopropyl-N-(4-methyl-2-((tetrahydrofuran-3-yl)oxy)benzyl)-2-((R)-piperidin-3-yloxy)pyrazolo[1,5-a][1,3,5]triazin-4-amine], the IC50 on CDK7/CycH/Mat1 was > 25 nM; on CDK9/Cyclin T1, > 2500 nM; at CDK2/CycA, > 2500 nM.
For `CC(C)c1cnn2c(NCc3ccccc3OC3CCCC3)nc(O[C@@H]3CCCNC3)nc12` [(VII-095), (R)-N-(2-(cyclopentyloxy)benzyl)-8-isopropyl-2-(piperidin-3-yloxy)pyrazolo[1,5-a][1,3,5]triazin-4-amine], the IC50 is > 25 nM on CDK7/CycH/Mat1, > 2500 nM at CDK9/Cyclin T1 and > 2500 nM on CDK2/CycA.
For the compound `CC(C)c1cnn2c(NCc3ccccc3C(N)=O)nc(O[C@@H]3CCCNC3)nc12` [(VII-096), (R)-2-(((8-isopropyl-2-(piperidin-3-yloxy)pyrazolo[1,5-a][1,3,5]triazin-4-yl)amino)methyl)benzamide], the values for the IC50 at CDK7/CycH/Mat1, at CDK9/Cyclin T1 and on CDK2/CycA were < 5 nM, 500 to 2500 nM and 50 to 500 nM, respectively.
For `CC(C)c1cnn2c(NCc3ccccc3OC3CCC3)nc(O[C@@H]3CCCNC3)nc12` [(VII-097), (R)-N-(2-cyclobutoxybenzyl)-8-isopropyl-2-(piperidin-3-yloxy)pyrazolo[1,5-a][1,3,5]triazin-4-amine] the same measures were > 25 nM, > 2500 nM and > 2500 nM.
For `CC(C)c1cnn2c(NCc3ccccc3Oc3ccccn3)nc(O[C@@H]3CCCNC3)nc12` [(VII-098), (R)-8-isopropyl-2-(piperidin-3-yloxy)-N-(2-(pyridin-2-yloxy)benzyl)pyrazolo[1,5-a][1,3,5]triazin-4-amine] the same measures were 10 to 25 nM, > 2500 nM and 500 to 2500 nM.
With `CC(C)c1cnn2c(NCc3ccccc3S(=O)(=O)N3CCOCC3)nc(O[C@@H]3CCCNC3)nc12` [(VII-099), (R)-8-isopropyl-N-(2-(morpholinosulfonyl)benzyl)-2-(piperidin-3-yloxy)pyrazolo[1,5-a][1,3,5]triazin-4-amine], the IC50 was < 5 nM at CDK7/CycH/Mat1, > 2500 nM at CDK9/Cyclin T1 and 500 to 2500 nM on CDK2/CycA.
For `CC(C)c1cnn2c(NCc3ccccc3Br)nc(O[C@@H]3CCCNC3)nc12` [(VII-100), (R)-N-(2-bromobenzyl)-8-isopropyl-2-(piperidin-3-yloxy)pyrazolo[1,5-a][1,3,5]triazin-4-amine], in that order: < 5 nM, 50 to 500 nM and 50 to 500 nM.
For `CC(C)c1cnn2c(NCc3cccc(Cl)c3Cl)nc(O[C@@H]3CCCNC3)nc12` [(VII-103), (R)-N-(2,3-dichlorobenzyl)-8-isopropyl-2-(piperidin-3-yloxy)pyrazolo[1,5-a][1,3,5]triazin-4-amine] the same measures were 10 to 25 nM, 50 to 500 nM and 50 to 500 nM.
For `CNS(=O)(=O)c1ccccc1CNc1nc(O[C@@H]2CCCNC2)nc2c(C(C)C)cnn12` [(VII-104), (R)-2-(((8-isopropyl-2-(piperidin-3-yloxy)pyrazolo[1,5-a][1,3,5]triazin-4-yl)amino)methyl)-N-methylbenzenesulfonamide] the same measures were < 5 nM, > 2500 nM and 50 to 500 nM.
As to `CC(C)c1cnn2c(NCc3ccccc3S(=O)(=O)N3CCCC3)nc(O[C@@H]3CCCNC3)nc12` [(VII-106), (R)-8-isopropyl-2-(piperidin-3-yloxy)-N-(2-(pyrrolidin-1-ylsulfonyl)benzyl)pyrazolo[1,5-a][1,3,5]triazin-4-amine], the IC50 was < 5 nM at CDK7/CycH/Mat1, > 2500 nM on CDK9/Cyclin T1 and 50 to 500 nM on CDK2/CycA.
For `CC(C)c1cnn2c(NCc3ccccc3S(=O)(=O)N3CCN(C)CC3)nc(O[C@@H]3CCCNC3)nc12` [(VII-107), (R)-8-isopropyl-N-(2-((4-methylpiperazin-1-yl)sulfonyl)benzyl)-2-(piperidin-3-yloxy)pyrazolo[1,5-a][1,3,5]triazin-4-amine] the same measures were < 5 nM, > 2500 nM and 50 to 500 nM.
For `CNC(=O)c1ccccc1CNc1nc(O[C@@H]2CCCNC2)nc2c(C(C)C)cnn12` [(VII-108), (R)-2-(((8-isopropyl-2-(piperidin-3-yloxy)pyrazolo[1,5-a][1,3,5]triazin-4-yl)amino)methyl)-N-methylbenzamide] the same measures were < 5 nM, > 2500 nM and 50 to 500 nM.
For `C#CC(C)NC(=O)c1ccccc1CNc1nc(O[C@@H]2CCCNC2)nc2c(C(C)C)cnn12` (stereo partly drawn) [(VII-109), N-(but-3-yn-2-yl)-2-(((8-isopropyl-2-((R)-piperidin-3-yloxy)pyrazolo[1,5-a][1,3,5]triazin-4-yl)amino)methyl)benzamide], in that order: 10 to 25 nM, > 2500 nM and > 2500 nM.
Take `CCCNC(=O)Nc1ccccc1CNc1nc(O[C@@H]2CCCNC2)nc2c(C(C)C)cnn12` [(VII-110), (R)-1-(2-(((8-isopropyl-2-(piperidin-3-yloxy)pyrazolo[1,5-a][1,3,5]triazin-4-yl)amino)methyl)phenyl)-3-propylurea]: the IC50 at CDK7/CycH/Mat1 was < 5 nM; at CDK9/Cyclin T1, > 2500 nM; at CDK2/CycA, > 2500 nM.
As to `CC(C)c1cnn2c(NCc3ccccc3NC(=O)NC3CCCCC3)nc(O[C@@H]3CCCNC3)nc12` [(VII-112), (R)-1-cyclohexyl-3-(2-(((8-isopropyl-2-(piperidin-3-yloxy)pyrazolo[1,5-a][1,3,5]triazin-4-yl)amino)methyl)phenyl)urea], the IC50 at CDK7/CycH/Mat1 was 5 to 10 nM; at CDK9/Cyclin T1, > 2500 nM; on CDK2/CycA, > 2500 nM.
`CC(C)c1cnn2c(NCc3ccccc3NC(=O)NCc3ccccc3)nc(O[C@@H]3CCCNC3)nc12` [(VII-113), (R)-1-benzyl-3-(2-(((8-isopropyl-2-(piperidin-3-yloxy)pyrazolo[1,5-a][1,3,5]triazin-4-yl)amino)methyl)phenyl)urea]: the IC50 on CDK7/CycH/Mat1 was 10 to 25 nM; on CDK9/Cyclin T1 it was > 2500 nM; on CDK2/CycA it was > 2500 nM.
Consider `CCNC(=O)Nc1ccccc1CNc1nc(O[C@@H]2CCCNC2)nc2c(C(C)C)cnn12` [(VII-114), (R)-1-ethyl-3-(2-(((8-isopropyl-2-(piperidin-3-yloxy)pyrazolo[1,5-a][1,3,5]triazin-4-yl)amino)methyl)phenyl)urea], for which the results for the IC50 on CDK7/CycH/Mat1, on CDK9/Cyclin T1 and on CDK2/CycA were < 5 nM, > 2500 nM and > 2500 nM, respectively.
Regarding `Cc1ccc(CNc2nc(O[C@@H]3CCCNC3)nc3c(C(C)C)cnn23)c(OCC(C)C)c1` [(VII-115), (R)-N-(2-isobutoxy-4-methylbenzyl)-8-isopropyl-2-(piperidin-3-yloxy)pyrazolo[1,5-a][1,3,5]triazin-4-amine], the results for the IC50 at CDK7/CycH/Mat1, at CDK9/Cyclin T1 and on CDK2/CycA were > 25 nM, > 2500 nM and > 2500 nM, respectively.
`CC(C)c1cnn2c(NCc3cccc4c3OCCCO4)nc(O[C@@H]3CCCNC3)nc12` [(VII-116), (R)-N-((3,4-dihydro-2H-benzo[b][1,4]dioxepin-6-yl)methyl)-8-isopropyl-2-(piperidin-3-yloxy)pyrazolo[1,5-a][1,3,5]triazin-4-amine]: the IC50 was in the range of 10 to 25 nM on CDK7/CycH/Mat1, 500 to 2500 nM on CDK9/Cyclin T1 and 50 to 500 nM on CDK2/CycA.
For the compound `CC(C)c1cnn2c(NCc3ccccc3C3=CCCCC3)nc(O[C@@H]3CCCNC3)nc12` [(VII-117), (R)-8-isopropyl-2-(piperidin-3-yloxy)-N-((2′,3′,4′,5′-tetrahydro-[1,1′-biphenyl]-2-yl)methyl)pyrazolo[1,5-a][1,3,5]triazin-4-amine], the results for the IC50 on CDK7/CycH/Mat1, on CDK9/Cyclin T1 and on CDK2/CycA were > 25 nM, > 2500 nM and > 2500 nM, respectively.

The values are drawn from patent US9567345B2, “Pharmaceutically active pyrazolo-triazine derivatives” (LEAD DISCOVERY CENTER GMBH, priority 2012, dated 2017).
